Tests used:
[1] = Stability of pyridoxamine in peritoneal dialysis fluid (HPLC); assay type: physicochemical; conditions: for peak height of pyridoxamine measured by HPLC / rate of peak height of pyridoxamine to first measurement day: 5 μg/ml
Text: • Peritoneal dialysis fluid: Dianeal (registered trademark)-N PD-4-1.5 (Baxter Limited) • Pyridoxamine dihydrochloride (Wako Pure Chemical Industries, Ltd.)
The above peritoneal dialysis fluid is composed of an acid solution containing glucose (pH 3.5 to 4.5) and an alkaline solution containing an electrolyte, such as sodium lactate (pH 7.0 to 7.7), which are respectively placed in upper and lower compartments of a two-compartment container divided by an openable partition. When peritoneal dialysis treatment is performed on a chronic renal failure patient, the partition is opened between the upper and lower compartments so that both solutions are mixed, and the mixture is used after its pH is adjusted to a neutral range (pH 6.5 to 7.5).
The glucose-containing solution (pH 4.15) in the upper compartment of the peritoneal dialysis fluid bag, the electrolyte solution (pH 7.02) in the lower compartment, and the mixture of the upper and lower compartment solutions (pH 6.76) were used as solvents, and 5 μg/ml of pyridoxamine dihydrochloride was dissolved in each solvent to obtain test samples. The test samples were left for three weeks at room temperature (25±5° C.), which was almost the same condition that renal failure patients generally store. During that period, sampling was conducted with time, and the amount of pyridoxamine contained in each test sample was measured.
The amount of pyridoxamine contained in the test samples was measured by high-performance liquid chromatography (HPLC) under the following conditions.
High-performance liquid chromatography: Shimadzu Corporation
Mobile phase: 0.1% trifluoroacetic acid-containing aqueous solution
Stationary phase: C18 column (Develosil), 4.6×150 mm, 5 μm; Nomura Chemical Co., Ltd.)
Detection: UV detection of absorbance at a wavelength of 294 nm (UV detector: Shimadzu Corporation)

[2] = test system: dicarbonyl compounds (3-deoxyglucosone) in the intraperitoneal fluid; assay: 3-deoxyglucosone in intraperitoneal fluid of uremic rat models, acid peritoneal dialysis fluid (Experimental Example 2); assay type: in vivo, Sprague-Dawley male rats; conditions: oral 30 mg/rat/day, 7 days
Text: The uremic rat models were produced using 7-week-old (body weight: 300 g or less) Sprague-Dawley male rats (CLEA Japan, Inc.) by the method described in NPL 27 and NPL 28. More specifically, the above rats were first subjected to 1/3 nephrectomy under anesthesia, and then to 1/2 nephrectomy after a week, thereby producing 5/6 nephrectomy rats (rats with kidney subtotal excision). These rats were allowed to freely take a standard diet for experimental rats (containing 1.06% calcium, 0.9% phosphate, and 21% protein; CE2: CLEA Japan, Inc.) and tap water until the eve of slaughter. […]
When the quantitative analysis of pyridoxamine and dicarbonyl compounds (3-deoxyglucosone) in the samples was performed by liquid chromatography (HPLC), the above frozen test samples (serum and intraperitoneal fluid) were used after natural thawing at room temperature. […]
The quantitative analysis of dicarbonyl compounds (3-deoxyglucosone) was performed by reversed-phase high-performance liquid chromatography (HPLC) under the following conditions. The quantitative analysis was performed using a standard calibration curve previously prepared by measurement under the following HPLC conditions using standard solutions of 3-deoxyglucosone of known concentrations. […]
Detection: UV detection of absorbance at a wavelength of 315 nm (UV detector: Shimadzu Corporation)

[3] = lower-compartment solution (pH 7.02), room temperature, 1st day, time 0
[4] = lower-compartment solution (pH 7.02), room temperature, 2nd day, time 24
[5] = lower-compartment solution (pH 7.02), room temperature, 6th day, time 120
[6] = lower-compartment solution (pH 7.02), room temperature, 7th day, time 144
[7] = lower-compartment solution (pH 7.02), room temperature, 8th day, time 168
[8] = lower-compartment solution (pH 7.02), room temperature, 10th day, time 216
[9] = lower-compartment solution (pH 7.02), room temperature, 15th day, time 336
[10] = lower-compartment solution (pH 7.02), room temperature, 21st day, time 480
[11] = peritoneal dialysis fluid mixture (pH 6.76), room temperature, 1st day, time 0
[12] = peritoneal dialysis fluid mixture (pH 6.76), room temperature, 2nd day, time 24
[13] = peritoneal dialysis fluid mixture (pH 6.76), room temperature, 6th day, time 120
[14] = peritoneal dialysis fluid mixture (pH 6.76), room temperature, 7th day, time 144
[15] = peritoneal dialysis fluid mixture (pH 6.76), room temperature, 8th day, time 168
[16] = peritoneal dialysis fluid mixture (pH 6.76), room temperature, 10th day, time 216
[17] = peritoneal dialysis fluid mixture (pH 6.76), room temperature, 15th day, time 336
[18] = peritoneal dialysis fluid mixture (pH 6.76), room temperature, 21st day, time 480
[19] = upper-compartment solution (pH 4.15), room temperature, 1st day, time 0
[20] = upper-compartment solution (pH 4.15), room temperature, 2nd day, time 24
[21] = upper-compartment solution (pH 4.15), room temperature, 6th day, time 120
[22] = upper-compartment solution (pH 4.15), room temperature, 7th day, time 144
[23] = upper-compartment solution (pH 4.15), room temperature, 8th day, time 168
[24] = upper-compartment solution (pH 4.15), room temperature, 10th day, time 216
[25] = upper-compartment solution (pH 4.15), room temperature, 15th day, time 336
[26] = upper-compartment solution (pH 4.15), room temperature, 21st day, time 480

peak height of pyridoxamine measured by HPLC [1, 3]: 13265 | rate of peak height of pyridoxamine to first measurement day [1, 3]: 100% | peak height of pyridoxamine measured by HPLC [1, 4]: 12959 | rate of peak height of pyridoxamine to first measurement day [1, 4]: 98% | peak height of pyridoxamine measured by HPLC [1, 5]: 13029 | rate of peak height of pyridoxamine to first measurement day [1, 5]: 98% | peak height of pyridoxamine measured by HPLC [1, 6]: 12800 | rate of peak height of pyridoxamine to first measurement day [1, 6]: 96% | peak height of pyridoxamine measured by HPLC [1, 7]: 12206 | rate of peak height of pyridoxamine to first measurement day [1, 7]: 92% | peak height of pyridoxamine measured by HPLC [1, 8]: 11887 | rate of peak height of pyridoxamine to first measurement day [1, 8]: 90% | peak height of pyridoxamine measured by HPLC [1, 9]: 11342 | rate of peak height of pyridoxamine to first measurement day [1, 9]: 86% | peak height of pyridoxamine measured by HPLC [1, 10]: 10505 | rate of peak height of pyridoxamine to first measurement day [1, 10]: 79% | peak height of pyridoxamine measured by HPLC [1, 11]: 11061 | rate of peak height of pyridoxamine to first measurement day [1, 11]: 100% | peak height of pyridoxamine measured by HPLC [1, 12]: 9991 | rate of peak height of pyridoxamine to first measurement day [1, 12]: 90% | peak height of pyridoxamine measured by HPLC [1, 13]: 10323 | rate of peak height of pyridoxamine to first measurement day [1, 13]: 93% | peak height of pyridoxamine measured by HPLC [1, 14]: 9821 | rate of peak height of pyridoxamine to first measurement day [1, 14]: 89% | peak height of pyridoxamine measured by HPLC [1, 15]: 9924 | rate of peak height of pyridoxamine to first measurement day [1, 15]: 90% | peak height of pyridoxamine measured by HPLC [1, 16]: 9612 | rate of peak height of pyridoxamine to first measurement day [1, 16]: 87% | peak height of pyridoxamine measured by HPLC [1, 17]: 9429 | rate of peak height of pyridoxamine to first measurement day [1, 17]: 85% | peak height of pyridoxamine measured by HPLC [1, 18]: 6322 | rate of peak height of pyridoxamine to first measurement day [1, 18]: 57% | pyridoxamine content relative to original content ([1]; upper-compartment and lower-compartment solutions before mixing, room temperature, within three weeks): 70% | peak height of pyridoxamine measured by HPLC [1, 19]: 14051 | rate of peak height of pyridoxamine to first measurement day [1, 19]: 100% | peak height of pyridoxamine measured by HPLC [1, 20]: 13271 | rate of peak height of pyridoxamine to first measurement day [1, 20]: 94% | peak height of pyridoxamine measured by HPLC [1, 21]: 13084 | rate of peak height of pyridoxamine to first measurement day [1, 21]: 93% | peak height of pyridoxamine measured by HPLC [1, 22]: 13316 | rate of peak height of pyridoxamine to first measurement day [1, 22]: 95% | peak height of pyridoxamine measured by HPLC [1, 23]: 11561 | rate of peak height of pyridoxamine to first measurement day [1, 23]: 82% | peak height of pyridoxamine measured by HPLC [1, 24]: 12139 | rate of peak height of pyridoxamine to first measurement day [1, 24]: 86% | peak height of pyridoxamine measured by HPLC [1, 25]: 11518 | rate of peak height of pyridoxamine to first measurement day [1, 25]: 82% | peak height of pyridoxamine measured by HPLC [1, 26]: 10605 | rate of peak height of pyridoxamine to first measurement day [1, 26]: 75% | stability of pyridoxamine in the peritoneal dialysis fluid ([1]; upper-compartment solution, lower-compartment solution and mixture, left for three weeks): unstable
SMILES: Cc1ncc(CO)c(CN)c1O.Cl.Cl [pyridoxamine dihydrochloride, Pyridoxamine dihydrochloride]
3-deoxyglucosone concentration in the peritoneal cavity relative to control group ([2]; acid peritoneal dialysis fluid): less than one-third | 3-deoxyglucosone concentration in intraperitoneal fluid ([2]; acid peritoneal dialysis fluid (pH 4.5 to 5.5) Dianeal PD-4 4.25, 20 ml i.p., control group 30.8): 9.9 µg/mL

Reference: patent US20130338574A1, “ORAL MEDICINAL COMPOSITION FOR PATIENTS UNDERGOING PERITONEAL DIALYSIS AND METHOD FOR USING SAME” (TOKAI UNIVERSITY EDUCATIONAL SYSTEM, priority 2010, published 2013)
